Test results from patent US20090246134A1, “COMPOSITIONS AND METHODS FOR MODULATING GATED ION CHANNELS” (PainCeptor Pharma Corporation, priority 2007, published 2009).
Where “and” joins values, the source holds several entries; their conditions need not be identical. Identical values can stand only once. One block for each molecule: values may come before it.

What was measured:
[1] = target: T1, ASIC1a (Homo sapiens, UniProt P78348); experiment: Calcium-imaging (calcium mobilization, FLIPR) assay in ASIC1a expressing HEK293 cells; format: cell-based; set-up: host or cells: HEK293; details: n=3-7, compounds not radiolabelled
T1 sequence (P78348 1-528): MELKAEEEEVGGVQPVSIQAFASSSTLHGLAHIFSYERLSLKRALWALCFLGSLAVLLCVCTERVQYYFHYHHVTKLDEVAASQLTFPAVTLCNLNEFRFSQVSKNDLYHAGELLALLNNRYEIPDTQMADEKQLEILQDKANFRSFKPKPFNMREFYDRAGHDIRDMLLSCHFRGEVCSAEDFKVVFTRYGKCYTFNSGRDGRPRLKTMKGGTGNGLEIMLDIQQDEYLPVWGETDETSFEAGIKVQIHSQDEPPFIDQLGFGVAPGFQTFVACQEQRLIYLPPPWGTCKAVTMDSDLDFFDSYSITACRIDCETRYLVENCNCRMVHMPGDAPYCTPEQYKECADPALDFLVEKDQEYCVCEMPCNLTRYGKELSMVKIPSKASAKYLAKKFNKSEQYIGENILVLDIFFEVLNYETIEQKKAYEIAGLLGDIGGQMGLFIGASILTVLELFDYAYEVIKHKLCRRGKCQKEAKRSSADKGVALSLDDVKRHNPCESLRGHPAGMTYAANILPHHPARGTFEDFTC
Procedure: ASIC1a expressing HEK293 cells are grown in culture medium (DMEM with 10% FBS), in polystyrene culture flasks ([…]) at 37° C. in a humidified atmosphere of 5% CO2. Confluency of cells should be 80-90% on day of plating. Cells are rinsed with 10 ml of PBS and re-suspended by addition of culture medium and trituration with a 25 ml pipette.
The cells are seeded at a density of approximately 1×10^6 cells/ml (100 μl/well) in black-walled, clear bottom, 96-well plates pre-treated with 10 mg/l poly-D-lysin (75 μl/well for ≧30 min). Plated cells were allowed to proliferate for 24 h before loading with dye.
Fluo-4/AM (1 mg, Molecular Probes) is dissolved in 912 μl DMSO. The Fluo-4/AM stock solution (1 mM) is diluted with culture medium to a final concentration of 2 μM (loading solution).
The culture medium is aspirated from the wells, and 50 μl of the Fluo-4/AM loading solution is added to each well. The cells are incubated at 37° C. for 30 min.
After the loading period, the loading solution is aspirated and the cells are washed twice with 100 μl modified Assay Buffer (145 mM NaCl, 5 mM KCl, 5 mM CaCl2, 1 mM MgCl2, 10 mM HEPES, pH 7.4) to remove extracellular dye. Following the second wash, 100 μl modified Assay Buffer is added to each well and the fluorescence is measured in FLIPR™ or FlexStation™ (Molecular Devices, USA), or any other suitable equipment known to the skilled in the art.
Temperature: Room temperature (20-22° C.)
First addition: 50 μl test solution at a rate of 30 μl/sec and a starting height of […]
Second addition: 50 μl MES solution (20 mM, 5 mM final concentration) at a rate of 35 μl/sec and a starting height of 150 μl.
Reading intervals: pre-incubation—10 sec×7 and 3 sec×3 antagonist phase—3 sec×17 and 10 sec×12
Addition plates (compound test plate and MES plate) are placed on the right and left positions in the FLIPR tray, respectively. Cell plates are placed in the middle position and the ASIC1a program is effectuated. FLIPR will then take the appropriate measurements in accordance with the interval settings above. Fluorescence obtained after stimulation is corrected for the mean basal fluorescence (in modified Assay Buffer).
The MES-induced peak calcium response, in the presence of test substance, is expressed relatively to the MES response alone. Test substances that block the MES-induced calcium response are re-tested in triplicates. Confirmed hits are picked for further characterization by performing full dose-response curves to determine potency of each hit compound as represented by the IC50 values (i.e., the concentration of the test substance which inhibits 50% of the MES-induced calcium response).
It is noted that the compounds below are not radiolabelled.

[2] = Liver microsomes stability and metabolite identification (LC-MS), human; format: in vitro ADME
Text: (§1) The objective of this study is to analyze in vitro samples of Compound A and Compound B from rat and human microsomes using liquid chromatography quadrupole ion trap mass spectrometry and identify the nature of the metabolite(s) for each species.
(§2) The HPLC system consisted of a Thermo Surveror autosampler and a Thermo Surveyor MS pump (San Jose, Calif., USA). The LC-MS/MS system used was a Thermo LCQ Advantage (San Jose, Calif., USA). Data was acquired on a Dell Optiplex desktop computer (Round Rock, Tex., USA) equipped with operation system Windows XP professional. Data acquisition and analysis were performed using XCalibur 1.4 (San Jose, Calif., USA).
(§3) After the incubation period of the liver microsomes, the reaction was stopped with the addition of acetonitrile and frozen for transport. Before analysis, the samples were thawed at room temperature. They were vortexed vigorously and centrifuged at approximately 12000 g for 10 minutes. The supernatant was transferred into an injection vial for analysis.
(§4) A gradient mobile phase was used with a Thermo Phenyl 100×2 mm column with particle size of 5 μm. The initial mobile phase condition consisted of methanol and 0.1% formic acid solution at a ratio of 20:80, respectively. From 0 to 2 minutes, the ratio was maintained at 20:80. From 2 to 10 minutes, a linear gradient was applied and a ratio of 90:10 was maintained from 10 to 12 minutes. […] The flow rate was fixed at 0.25 mL/min.
(§5) The mass spectrometer was interfaced with the HPLC system using a pneumatic assisted electrospray ion source. The sheath gas was set to 15 units and the ESI electrode was set to 4000 V (positive mode). The capillary temperature was set at 300° C., and the capillary voltage was set to 13 V. The mass spectrometer was operating in full scan MS mode using one segment analysis (200-800).

[3] = Plasma composition analysis, parent compound and metabolites by MS; format: in vivo; details: rat plasma; for Plasma Component: P-OH: Compound G: detected but not confirmed (footnote a)
Procedure: Rats receive compounds (5 mg/kg) dissolved in HPβCD 15%, dextrose 2.5%, pH 5 by intravenous (i.v). route or (25-30 mg/kg) dissolved in HPβCD 15%, dextrose 2.5%, […] (s.c.) route or (50-150 mg/kg) dissolved in HPβCD 15%, dextrose 2.5%, pH 5 by oral (p.o.) route. After the treatment, approximately 100 μl of blood sample is collected and the accurate bleeding time is recorded for each sample. Each blood sample is collected into Microvette blood collection tube containing anticoagulant lithium heparin. Following collection, the samples are centrifuged at […] for 15 minutes (to avoid haemolysis) and the plasma obtained from each is recovered and stored frozen (at −80° C.) pending analysis. Frozen samples are shipped on dry ice to quantify drug concentration within plasma after extraction procedure as previously described in Example 13.

[4] = Liver microsomes stability and metabolite identification (LC-MS), rat; format: in vitro ADME
Text: as §1, §2, §3, §4, §5

[5] = Liver microsomes stability and metabolite identification (LC-MS), dog; format: in vitro ADME
[6] = system: formalin-induced pain in Sprague-Dawley rats; experiment: Formalin model of acute tonic pain; format: in vivo, rat; details: rat, in vivo
Procedure: Male Sprague-Dawley rats are housed together in groups of three animals under standard conditions with unrestricted access to food and water. All experiments are conducted according to the ethical guidelines for investigations of experimental pain in conscious animals (Zimmerman, 1983)
Assessment of formalin-induced flinching behavior in normal, uninjured rats (body weight 150-180 g) was made with the use of an Automated Nociception Analyser (University of California, San Diego, USA). Briefly, this involved placing a small C-shaped metal band (10 mm wide×27 mm long) on the hindpaw of the rat to be tested. The rats (four rats were included in each testing session) were then placed in a cylindrical plexiglass observation chamber (diameter 30.5 cm and height 15 cm) for 20 min for adaptation purposes prior to being administered drug or vehicle according to the experimental paradigm being followed. After adaptation, individual rats were then gently restrained and formalin (5% in saline, 50 μl, s.c.) was injected into the plantar surface of the hindpaw using a 27 G needle. Rats were then returned to their separate observation chambers, each of which were in turn situated upon an enclosed detection device consisting of two electromagnetic coils designed to produce an electromagnetic field in which movement of the metal band could be detected. The analogue signal was then digitised and a software algorithm (LabView) applied to enable discrimination of flinching behaviour from other paw movements. A sampling interval of 1 min was used and on the basis of the resulting response patterns 5 phases of nociceptive behaviour were identified and scored: first phase (P1; 0-5 min), interphase (Int; 6-15 min), second phase (P2; […]), phase 2A (P2A; 16-40 min) and phase 2B (P2B; 41-60 min).
Nociceptive behavior was also determined manually every 5 min by measuring the amount of time spent in each of four behavioral categories: 0, treatment of the injected hindpaw is indistinguishable from that of the contralateral paw; 1, the injected paw has little or no weight placed on it; 2, the injected paw is elevated and is not in contact with any surface; 3, the injected paw is licked, bitten, or shaken. A weighted nociceptive score, ranging from 0 to 3 was calculated by multiplying the time spent in each category by the category weight, summing these products, and dividing by the total time for each 5 min block of time. (Coderre et al., Pain 1993; 54: 43). On the basis of the resulting response patterns, 2 phases of nociceptive behavior were identified and scored: first phase (P1; 0-5 min), interphase (Int; 6-15 min), second phase (P2; […]), phase 2A (P2A; 16-40 min) and phase 2B (P2B; 41-60 min).
Statistical analysis was performed using Prism™ 4.01 software package (GraphPad, San Diego, Calif., USA). The difference in response levels between treatment groups and control vehicle group was analyzed using an ANOVA followed by Bonferroni's method for post-hoc pair-wise comparisons. A p value<0.05 was considered to be significant
The effect of Compound A on pain induced by intraplantar formalin injection was investigated. Compound A was administered i.p. 30 min. before the formalin. Compound A was able to reduce the total pain score behavior (flinching, licking, biting) in phase 1 and 2 of the formalin test.

[7] = human microsomes 60 min (samples 17-19)
[8] = rat microsomes 60 min (samples 8-10)
[9] = dog microsomes 60 min (samples 26-28)

IC50 [1]: 1000 nM
Structure (SMILES): COc1ccc(F)cc1-c1cc2c(c3c1CCN(C)C3)NC(=O)/C2=N/O [Compound A (minor Z isomer isolated), 5-(5-fluoro-2-methoxyphenyl)-6,7,8,9-tetrahydro-3-(hydroxyimino)-8-methyl-1H-pyrrolo[3,2-h]isoquinoline-2(3H)-one]

Total % metabolites ([2]; % peak area relative to parent at T0, 60 min incubation, human microsomes): 9.4%
Compound B metabolite identification: m/z 342 [2, 7]: Yes
Compound B metabolite identification: m/z 356 [2, 7]: low
Compound B metabolite identification: m/z 370 (parent) [2, 7]: Yes
Compound B metabolite identification: m/z 386 [2, 7]: Yes
Calc. Conc. ([2]; human microsomes, time 0 min): 4.39 µM and 5.04 µM
Calc. Conc. ([2]; human microsomes, time 60 min): 4.34 µM and 4.59 µM and 5.03 µM
Plasma Component: N-desMe or desEt ([3]; IV 5 mg/kg): Trace
Plasma Component: O-desMe ([3]; IV 5 mg/kg): Trace
Plasma Component: P—OH ([3]; IV 5 mg/kg): Trace
Plasma Component: N-desMe or desEt ([3]; PO 50 mg/kg): Trace
Plasma Component: O-desMe ([3]; PO 50 mg/kg): Trace
Plasma Component: P—OH ([3]; PO 50 mg/kg): Trace
Plasma Component: N-desMe or desEt ([3]; SC 25 mg/kg): Trace
Plasma Component: O-desMe ([3]; SC 25 mg/kg): Trace
Plasma Component: P—OH ([3]; SC 25 mg/kg): Trace
Total % metabolites ([4]; % peak area relative to parent at T0, 60 min incubation, rat microsomes): 12.8%
Compound B metabolite identification: m/z 342 [4, 8]: Yes
Compound B metabolite identification: m/z 356 [4, 8]: Yes
Compound B metabolite identification: m/z 370 (parent) [4, 8]: Yes
Compound B metabolite identification: m/z 386 [4, 8]: Yes
Calc. Conc. ([4]; rat microsomes, time 0 min): 4.95 µM
Calc. Conc. ([4]; rat microsomes, time 60 min): 0.90 µM and 0.92 µM and 0.97 µM
Total % metabolites ([5]; % peak area relative to parent at T0, 60 min incubation, dog microsomes): 4.93%
Compound B metabolite identification: m/z 342 [5, 9]: very weak
Compound B metabolite identification: m/z 356 [5, 9]: very weak
Compound B metabolite identification: m/z 370 (parent) [5, 9]: Yes
Compound B metabolite identification: m/z 386 [5, 9]: low
Calc. Conc. ([5]; dog microsomes, time 0 min): 4.44 µM and 4.56 µM
Calc. Conc. ([5]; dog microsomes, time 60 min): 4.33 µM and 4.38 µM and 4.17 µM
Structure (SMILES): CCN1CCc2c(-c3cc(F)ccc3OC)cc3c(c2C1)NC(=O)/C3=N/O [Compound B, 5-(5-fluoro-2-methoxyphenyl)-6,7,8,9-tetrahydro-3-(hydroxyimino)-8-ethyl-1H-pyrrolo[3,2-h]isoquinoline-2(3H)-one]
acute tonic pain induced by formalin injection in the paw [6]: block

Plasma Component: N-desEt ([3]; IV 5 mg/kg): Small
Plasma Component: O-desMe ([3]; IV 5 mg/kg (table of Compounds G and J)): Small
Plasma Component: P-OH ([3]; IV 5 mg/kg): Small ^a
Plasma Component: N-desEt ([3]; PO 50 mg/kg): Small
Plasma Component: O-desMe ([3]; PO 50 mg/kg (table of Compounds G and J)): Small
Plasma Component: P-OH ([3]; PO 50 mg/kg): Small ^a
IC50 [1]: 300 nM
Structure (SMILES): CCN1CCc2c(-c3cc(Cl)ccc3OC)cc3c(c2C1)NC(=O)/C3=N/O [Compound G, 5-(5-chloro-2-methoxyphenyl)-6,7,8,9-tetrahydro-3-(hydroxyimino)-8-ethyl-1H-pyrrolo[3,2-h]isoquinoline-2(3H)-one]

IC50 [1]: 800 nM
Structure (SMILES): CN1CCc2c(-c3cc(F)ccc3O)cc3c(c2C1)NC(=O)C3=NO [Compound L, 5-(5-Fluoro-2-hydroxyphenyl)-3-(hydroxyimino)-8-methyl-6,7,8,9-tetrahydro-1H-pyrrolo[3,2-h]isoquinolin-2(3H)-one]
